Literature values, collected in publication PMC10376326, “Novel Acylselenourea Derivatives: Dual Molecules with Anticancer and Radical Scavenging Activity” (Antioxidants, 2023).

Parameters: method as in PMID 36671001
Conditions: selenoester analogs, 0.03 mg/mL, 90 min; cited from earlier work

SMILES	DPPH Inhibitory% [%]
C=CC[Se]C(=O)c1ccco1 [C00001 2-furyl]	4.6 ± 7.5
C=CC[Se]C(=O)C=Cc1ccccc1 [C00001 2-phenylvinyl]	3.6 ± 5.3
C=CC[Se]C(=O)c1cccs1 [C00001 2-thiophenyl]	7.8 ± 10.4
C=CC[Se]C(=O)c1cccnc1 [C00001 3-pyridyl]	6.3 ± 2.9
C=CC[Se]C(=O)c1ccc2c(c1)OCO2 [C00001 5-benzo[d][1, 3]dioxyl]	0.0 ± 2.3
C=CC[Se]C(=O)c1ccccc1 [C00001 phenyl]	9.0 ± 1.2
C#CC[Se]C(=O)c1ccco1 [C00003 2-furyl]	5.4 ± 2.3
C#CC[Se]C(=O)C=Cc1ccccc1 [C00003 2-phenylvinyl]	2.4 ± 2.0
